In the NIST ThermoML archive (doi:10.1016/j.jct.2011.02.002):

Experiment: molar heat capacity at constant pressure
Conditions: 101.33 kPa, Crystal, Thermal relaxation technique

[Hf+4].[O-2].[O-2] [hafnium(IV) oxide]
Conditions	molar heat capacity at constant pressure [J/K/mol]
1.92 K	0.0006
2 K	0.00065
2.04 K	0.0007
2.19 K	0.0009
2.48 K	0.0011
2.8 K	0.0015
3.09 K	0.002
3.4 K	0.0027
3.77 K	0.0037
4.17 K	0.0048
4.63 K	0.0065
5 K	0.00802
5.17 K	0.0091
5.74 K	0.0118
6.4 K	0.0162
7.11 K	0.022
7.9 K	0.0304
8.79 K	0.0411
9.77 K	0.0569
10 K	0.061
10.87 K	0.0795
12.08 K	0.1132
13.43 K	0.1598
14.85 K	0.2256
16.63 K	0.3276
18.43 K	0.4834
20 K	0.63
20.37 K	0.6725
22.69 K	0.967
25.26 K	1.369
28.1 K	1.905
30 K	2.3
31.26 K	2.569
34.79 K	3.429
38.68 K	4.469
40 K	4.82
43 K	5.684
47.81 K	7.049
50 K	7.72
53.14 K	8.65
59.07 K	10.45
65.65 K	12.39
72.95 K	14.5
81.06 K	16.95
90.05 K	19.69
100 K	22.26
100.01 K	22.35
110.26 K	25.03
120.29 K	27.43
130.3 K	29.98
140.32 K	32.44
150 K	34.61
150.53 K	34.59
160.66 K	36.82
170.61 K	38.83
180.78 K	40.81
190.96 K	42.62
200 K	44.22
201.26 K	44.45
211.45 K	46.16
221.7 K	48.01
231.89 K	49.47
242.02 K	50.89
250 K	51.9
252.09 K	52.39
262.17 K	53.45
272.31 K	54.56
273.15 K	54.95
282.4 K	55.7
292.46 K	56.89
298.15 K	57.73
302.51 K	58.63
